# Patent US12225917B2 (priority 2017, dated 2025)
# Where “and” joins values, the source holds several entries; their conditions need not be identical. Identical values can stand only once. Like-named read-outs stand apart in the source and are kept apart here.
# What was measured:
# [1] = system: Clostridium Perfringens (type A strain EHE-NE36)
# [2] = system: Eimeria species; set-up: species or system commercial meat chickens; conditions: in vivo
# [3] = in vivo
# [4] = General safety in broilers reared to market weight by histology (Example 8); type: in vivo, broiler chickens; conditions: histology D42
# Source text: This study evaluates the safety of IRP001 chloride in broilers through examination of histology.
# The objective of this study was to test the general safety of IRP001 chloride in broilers reared to market weight by examination of histology.
# The experiment consisted of the following treatments (1 pen per treatment, Table 54).
# Birds were kept in a pen having an area of 4×10=40 ft^2, with clean wood shavings as bedding with a thickness of approximately 4 inches. The pen had 5 feet high side walls with a bottom 1 ½ feet being of solid wood to prevent bird migration.
# The temperature of the building was monitored. Environmental conditions during the trial (temperature) were appropriate (optimum) to the age of the animals. Illumination was provided by fluorescent bulbs placed above the pens. The diets were provided ad libitum in one tube-type feeder per pen. From D0 until D7, feed was also supplied on a tray placed on the litter of each pen. Water was provided ad libitum from one Plasson drinker per pen.
# Standard floor pen management practices were used throughout the experiment. Animals and housing facilities were inspected twice daily, observing and recording the general health status, constant feed and water supply as well as temperature, removing all dead birds, and recognizing unexpected events. Birds found dead during the study were noted on the Daily Mortality Record, and were not replaced. Pen number, the date of mortality, sex, weight, and diagnosis were recorded.
# Day of hatch male Cobb chicks were obtained and ten male broiler chicks were placed in each pen. Accountabilities of all test animals and any extra birds were recorded on animal disposition form. The birds were sexed at the hatchery. The breeder flock history and vaccination record at the hatchery were recorded. Bird weights by pen were recorded on D0 and 42.
# All weights were by pen. Treatment Starter feed was fed from D0 to 21. On D21, non-consumed Starter was weighed by pen and discarded. Grower feed was issued and fed until D35. On D35, non-consumed Grower was weighed by pen and discarded. Finisher feed was fed until D42. On D42, non-consumed Finisher was weighed by pen and discarded.
# On the day of study completion (D42), five birds from each pen were humanly euthanized and upper, mid and lower gut sections plus liver lobe were collected and stored in neutral buffered formalin. Theses samples were shipped for analysis.
# [5] = Example 3: intestinal health scores based on Tierlynck et al. 2011 (dysbacteriosis, gross gut pathology); type: in vivo, commercial meat chickens; conditions: for Ballooning (total gut) score / Contents lower intestine score / Contents upper intestine score / Hyperaemia lower intestine score / Hyperaemia upper intestine score / Tonus lower intestine score / Tonus upper intestine score / Total Intestine health score (maximum 10) / Translucency lower intestine score / Translucency upper intestine score / Undigested particles in rectum score: reference feed: Salino, or Sal Zn Bac
# Source text: […] General gut quality (looking for enteritis) was also visually assessed at that point.
# This is a scoring system aimed at quantifying the level of dysbacteriosis present in a group of birds, attributing scores for certain grossly visible abnormalities. Higher total scores (maximum 10) reflect a higher level of dysbacteriosis, although this may be compromised if coccidiosis is present. For our purposes, the intestinal scores simply reflect gross gut pathology.
# [6] = NE challenge, IVP 0.1 g/L In-water, Groups 7, 8
# [7] = NE challenge, IVP 0.2 g/kg In-feed, Group 11
# [8] = NE challenge, IVP 1.0 g/L In-water, Groups 9, 10
# [9] = NE challenge, IVP 2.0 g/kg In-feed, Group 12
# [10] = Necrotic Enteritis, IVP water 1.0 g/L, line 'Mean' of Groups 9 and 10
# [11] = Necrotic Enteritis, IVP water 1.0 g/L, per isolator, Groups 9 and 10
# [12] = Nil Challenge, IVP water 1.0 g/L, line 'Mean' of Groups 3 and 4
# [13] = Nil Challenge, IVP water 1.0 g/L, per isolator, Groups 3 and 4
# [14] = Nil challenge, IVP 1.0 g/L In-water, Groups 3, 4
# [15] = broilers in a production environment
structure (smiles),measurement,setting,value
"COc1ccc2cc3[n+](cc2c1OC)CCc1cc2c(cc1-3)OCO2 [IRP001 chloride, berberine chloride]",Median Duodenal Lesion Score (0 absent to 4 severe),[1]; [6],4
same,Median Ilial Lesion Score (0 absent to 4 severe),[1]; [6],4
same,Median Jejunal Lesion Score (0 absent to 4 severe),[1]; [6],4
same,Median Duodenal Lesion Score (0 absent to 4 severe),[1]; [7],4
same,Median Ilial Lesion Score (0 absent to 4 severe),[1]; [7],4
same,Median Jejunal Lesion Score (0 absent to 4 severe),[1]; [7],4
same,Median Duodenal Lesion Score (0 absent to 4 severe),[1]; [8],1
same,Median Ilial Lesion Score (0 absent to 4 severe),[1]; [8],1
same,Median Jejunal Lesion Score (0 absent to 4 severe),[1]; [8],1
same,Median Duodenal Lesion Score (0 absent to 4 severe),[1]; [9],1
same,Median Ilial Lesion Score (0 absent to 4 severe),[1]; [9],1
same,Median Jejunal Lesion Score (0 absent to 4 severe),[1]; [9],1
same,Mortalities prior to autopsy,"[1]; Necrotic Enteritis, IVP feed 0.2 g/kg, Group 11",9
same,Mortalities prior to autopsy,"[1]; Necrotic Enteritis, IVP feed 2 g/kg, Group 12",2
same,Mortalities prior to autopsy,"[1]; Necrotic Enteritis, IVP water 0.1 g/L, per isolator, Groups 7 and 8, listed as IVP",10
same,Mortalities prior to autopsy,[1]; [10],0
same,Mortality %,[1]; [10],0%
same,Mortalities prior to autopsy,[1]; [11],0
same,Mortality %,[1]; [11],0%
same,Mortalities prior to autopsy,[1]; [12],0
same,Mortality %,[1]; [12],0%
same,Mortalities prior to autopsy,[1]; [13],0
same,Mortality %,[1]; [13],0%
same,Median Duodenal Lesion Score (0 absent to 4 severe),[1]; [14],0
same,Median Ilial Lesion Score (0 absent to 4 severe),[1]; [14],0
same,Median Jejunal Lesion Score (0 absent to 4 severe),[1]; [14],0
same,"coccidiosis lesion scores in duodenum, jejunum and total gut",[2],highest lesion scores
same,oocyst counts in faeces,[2],numerically lower than the controls
same,total gut coccidiosis lesion scores,[2],significantly reduced total gut lesion scores
same,Feed per bird over period 0-14 days,[3],485^B g/bird and 513^A g/bird and 512^A g/bird
same,Feed per bird over period 0-21 days,[3],1186^B g/bird and 1227^AB g/bird and 1240^AB g/bird
same,Feed per bird over period 0-28 days,[3],1957 g/bird and 2037 g/bird and 2049 g/bird
same,Feed per bird over period 0-42 days,[3],4121 g/bird and 4247 g/bird and 4305 g/bird
same,Mean Weight Gain over period 0-7 days,[3],113 gm and 121 gm and 119 gm
same,Mean Weight Gain over period 8-14 days,[3],320^C gm and 334^A gm and 343^A gm
same,Mean Weight Gain over period 15-21 days,[3],491^B gm and 517^A gm and 528^A gm
same,Mean Weight Gain over period 22-28 days,[3],593 gm and 618 gm and 600 gm
same,Mean Weight Gain over period 29-42 days,[3],1324 gm and 1341 gm and 1436 gm
same,Mean live weight at 0 days,[3],41 gm
same,Mean live weight at 7 days,[3],160 gm
same,Mean live weight at 21 days,[3],923^C gm
same,growth rates throughout the experiment,[3],statistically similar to the control group
same,live weight to the end of the experiment (day 42),[3],remained significantly lighter than all other groups
same,mean live weight at 14 days,[3],significantly lower weights than the negative control
same,gastrointestinal tract (GIT) histologic lesions,[4]; [15],within normal limits
same,liver histologic lesions,[4]; [15],within normal limits
same,Cumulative Pathology and Enteritis scores,[4]; versus control Treatment 1 Nil group,equal or lower than the control
same,translucency score in the upper intestine and undigested feed particles in the rectum,"[5]; 21 days, higher two levels 0.3 and 0.1 g/kg, compared with controls and 0.03 g/kg",reduced translucency score in the upper intestine and the presence of undigested feed particles in the rectum
same,total intestinal health scores compared with the controls,"[5]; 28 days, 0.3 g/kg in feed, P=0.06",approached significance
"CC[C@@H](C(=O)[C@@H](C)[C@@H](O)[C@H](C)[C@@H]1O[C@@H]([C@@H](CC)C(=O)O)CC[C@@H]1C)[C@H]1O[C@]2(C=C[C@@H](O)[C@]3(CC[C@@](C)([C@H]4CC[C@](O)(CC)[C@H](C)O4)O3)O2)[C@H](C)C[C@@H]1C [salinomycin, Salinomycin]","Faecal oocyst count, Log10 Mean",[2],4.72^B Log10 (Oocyst/g faeces)
same,"Faecal oocyst count, Mean",[2],"72,046 Oocyst/g faeces"
same,Feed per bird over period 0-14 days,[3],497^AB g/bird
same,Feed per bird over period 0-21 days,[3],1193^B g/bird
same,Feed per bird over period 0-28 days,[3],2074 g/bird
same,Feed per bird over period 0-42 days,[3],4298 g/bird
same,Mean Weight Gain over period 0-7 days,[3],116 gm
same,Mean Weight Gain over period 8-14 days,[3],330^BC gm
same,Mean Weight Gain over period 15-21 days,[3],517^A gm
same,Mean Weight Gain over period 22-28 days,[3],645 gm
same,Mean Weight Gain over period 29-42 days,[3],1384 gm
same,Mean live weight at 0 days,[3],41 gm
same,growth rates throughout the experiment,[3],statistically similar to the control group
same,mean live weight at 14 days,[3],446^AB gm
same,Ballooning (total gut) score,[5]; Age 21 days,0.10
same,Contents lower intestine score,[5]; Age 21 days,0.45
same,Contents upper intestine score,[5]; Age 21 days,0.65
same,Hyperaemia lower intestine score,[5]; Age 21 days,0.00
same,Hyperaemia upper intestine score,[5]; Age 21 days,0.15
same,Tonus lower intestine score,[5]; Age 21 days,0.50
same,Tonus upper intestine score,[5]; Age 21 days,0.50
same,Total Intestine health score (maximum 10),[5]; Age 21 days,3.55
same,Translucency lower intestine score,[5]; Age 21 days,0.85
same,Translucency upper intestine score,[5]; Age 21 days,0.20^B
same,Undigested particles in rectum score,[5]; Age 21 days,0.15^B
same,Ballooning (total gut) score,[5]; Age 28 days,0.80
same,Contents lower intestine score,[5]; Age 28 days,0.00
same,Contents upper intestine score,[5]; Age 28 days,1.00
same,Hyperaemia lower intestine score,[5]; Age 28 days,0.20
same,Hyperaemia upper intestine score,[5]; Age 28 days,0.80
same,Tonus lower intestine score,[5]; Age 28 days,0.60
same,Tonus upper intestine score,[5]; Age 28 days,0.80
same,Total Intestine health score (maximum 10),[5]; Age 28 days,5.20
same,Translucency lower intestine score,[5]; Age 28 days,0.20
same,Translucency upper intestine score,[5]; Age 28 days,0.40
same,Undigested particles in rectum score,[5]; Age 28 days,0.40
